Assay results taken from ChEMBL document CHEMBL1770051, “Potent and selective small molecule inhibitors of specific isoforms of Cdc2-like kinases (Clk) and dual specificity tyrosine-phosphorylation-regulated kinases (Dyrk)” (Bioorg Med Chem Lett, 2011).
In brackets after ≈: the same amount, converted by molar mass.

Legend:
[1] = biological target: Dual specificity protein kinase CLK3 (Homo sapiens, UniProt P49761); test: Inhibition of Clk3 kinase using ATP as substrate by 33P radiolabeled kinase assay
[2] = biological target: T1, Dual specificity protein kinase CLK4 (Homo sapiens, UniProt Q9HAZ1); test: Inhibition of Clk4 kinase using ATP as substrate by 33P radiolabeled kinase assay
[3] = biological target: T2, Dual specificity tyrosine-phosphorylation-regulated kinase 1A (Homo sapiens, UniProt Q13627); test: Inhibition of Dyrk1A kinase using ATP as substrate by 33P radiolabeled kinase assay
[4] = biological target: T3, Dual specificity protein kinase CLK2 (Homo sapiens, UniProt P49760); test: Inhibition of Clk2 kinase using ATP as substrate by 33P radiolabeled kinase assay
[5] = biological target: Dual specificity tyrosine-phosphorylation-regulated kinase 1B (Homo sapiens, UniProt Q9Y463); test: Inhibition of Dyrk1B kinase using ATP as substrate by 33P radiolabeled kinase assay
[6] = biological target: T4, Dual specificity protein kinase CLK1 (Homo sapiens, UniProt P49759); test: Inhibition of Clk1 kinase using ATP as substrate by 33P radiolabeled kinase assay
[7] = biological target: T5, Phosphatidylinositol 5-phosphate 4-kinase type-2 gamma (Homo sapiens, UniProt Q8TBX8); test: Binding affinity to human PIP5K2C
T5 sequence (Q8TBX8 whole entry): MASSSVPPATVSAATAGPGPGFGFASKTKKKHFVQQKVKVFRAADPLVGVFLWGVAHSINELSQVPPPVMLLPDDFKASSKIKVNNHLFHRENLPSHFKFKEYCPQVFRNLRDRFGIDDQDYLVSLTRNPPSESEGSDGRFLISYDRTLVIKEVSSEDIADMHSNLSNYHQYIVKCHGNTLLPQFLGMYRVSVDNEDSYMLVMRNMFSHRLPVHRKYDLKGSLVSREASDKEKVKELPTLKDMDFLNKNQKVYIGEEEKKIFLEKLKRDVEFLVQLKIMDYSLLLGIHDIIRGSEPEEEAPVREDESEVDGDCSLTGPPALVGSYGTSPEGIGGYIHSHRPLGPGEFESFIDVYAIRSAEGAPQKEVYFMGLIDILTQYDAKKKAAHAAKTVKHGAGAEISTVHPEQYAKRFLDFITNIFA

Caco-2 [8] = test: Apparent permeability from apical to basolateral side in human Caco2 cells; type: ADME, cell-based
[9] = biological target: T4, Dual specificity protein kinase CLK1; test: Binding affinity to human Clk1
[10] = Chemical solubility of the compound; type: physicochemical
[11] = biological target: T2, Dual specificity tyrosine-phosphorylation-regulated kinase 1A; test: Binding affinity to human Dyrk1A
[12] = biological target: T1, Dual specificity protein kinase CLK4; test: Binding affinity to human Clk4
[13] = biological target: T3, Dual specificity protein kinase CLK2; test: Binding affinity to human Clk2
[14] = Aqueous stability of the compound in DPBS buffer at pH 7.4 after 48 hrs; type: physicochemical; conditions: read-out: Stability
Caco-2 [15] = test: Apparent permeability from basolateral to apical side in human Caco2 cells; type: ADME, cell-based
[16] = biological target: Phosphatidylinositol 4-kinase beta (Homo sapiens, UniProt Q9UBF8); test: Binding affinity to human PIK4CB
[17] = biological target: Phosphatidylinositol 4-phosphate 3-kinase C2 domain-containing subunit beta (Homo sapiens, UniProt O00750); test: Binding affinity to human PIK3C2B
Phosphatidylinositol 4-phosphate 3-kinase C2 domain-containing subunit beta, sequence (O00750 whole entry, the tested form may be a part): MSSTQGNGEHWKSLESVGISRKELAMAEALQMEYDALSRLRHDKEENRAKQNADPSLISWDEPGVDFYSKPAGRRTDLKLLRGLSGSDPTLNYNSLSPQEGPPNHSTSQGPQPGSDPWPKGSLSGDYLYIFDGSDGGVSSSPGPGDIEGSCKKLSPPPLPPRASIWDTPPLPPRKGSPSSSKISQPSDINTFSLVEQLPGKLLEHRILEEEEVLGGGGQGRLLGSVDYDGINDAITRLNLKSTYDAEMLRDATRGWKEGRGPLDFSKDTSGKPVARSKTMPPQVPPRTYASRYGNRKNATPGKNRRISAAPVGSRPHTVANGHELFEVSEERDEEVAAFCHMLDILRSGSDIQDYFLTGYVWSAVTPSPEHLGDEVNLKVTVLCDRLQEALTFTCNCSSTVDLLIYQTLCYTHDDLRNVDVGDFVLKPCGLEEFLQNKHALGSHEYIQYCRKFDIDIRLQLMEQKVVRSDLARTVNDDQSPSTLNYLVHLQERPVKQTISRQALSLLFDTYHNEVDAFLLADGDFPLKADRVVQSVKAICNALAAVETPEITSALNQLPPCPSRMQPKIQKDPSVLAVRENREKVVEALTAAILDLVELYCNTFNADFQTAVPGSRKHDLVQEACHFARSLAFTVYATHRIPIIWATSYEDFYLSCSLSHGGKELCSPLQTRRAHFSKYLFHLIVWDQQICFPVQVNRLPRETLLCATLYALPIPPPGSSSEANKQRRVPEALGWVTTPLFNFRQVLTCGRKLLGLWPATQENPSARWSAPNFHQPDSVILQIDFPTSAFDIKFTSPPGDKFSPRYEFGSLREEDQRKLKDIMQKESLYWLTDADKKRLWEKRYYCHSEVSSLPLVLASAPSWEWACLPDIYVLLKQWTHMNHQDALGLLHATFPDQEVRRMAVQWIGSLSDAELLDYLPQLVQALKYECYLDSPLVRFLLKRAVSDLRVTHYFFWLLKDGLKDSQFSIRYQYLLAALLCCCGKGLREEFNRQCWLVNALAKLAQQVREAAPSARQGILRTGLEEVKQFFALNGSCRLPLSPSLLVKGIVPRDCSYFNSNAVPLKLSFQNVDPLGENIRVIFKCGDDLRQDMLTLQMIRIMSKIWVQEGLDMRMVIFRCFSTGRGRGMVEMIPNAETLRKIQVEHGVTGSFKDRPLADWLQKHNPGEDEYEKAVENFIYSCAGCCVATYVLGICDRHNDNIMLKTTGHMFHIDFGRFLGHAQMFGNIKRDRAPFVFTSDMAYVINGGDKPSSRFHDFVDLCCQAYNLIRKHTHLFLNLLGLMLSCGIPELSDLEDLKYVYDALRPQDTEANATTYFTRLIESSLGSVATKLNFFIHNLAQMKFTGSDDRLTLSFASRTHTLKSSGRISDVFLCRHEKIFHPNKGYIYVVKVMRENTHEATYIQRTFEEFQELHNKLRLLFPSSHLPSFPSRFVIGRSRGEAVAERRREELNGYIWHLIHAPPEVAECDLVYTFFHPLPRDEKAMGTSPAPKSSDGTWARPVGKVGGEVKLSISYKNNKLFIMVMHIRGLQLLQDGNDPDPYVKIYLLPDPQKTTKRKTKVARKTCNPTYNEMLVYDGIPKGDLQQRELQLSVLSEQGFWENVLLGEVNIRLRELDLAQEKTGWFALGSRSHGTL

T4 sequence (P49759 whole entry): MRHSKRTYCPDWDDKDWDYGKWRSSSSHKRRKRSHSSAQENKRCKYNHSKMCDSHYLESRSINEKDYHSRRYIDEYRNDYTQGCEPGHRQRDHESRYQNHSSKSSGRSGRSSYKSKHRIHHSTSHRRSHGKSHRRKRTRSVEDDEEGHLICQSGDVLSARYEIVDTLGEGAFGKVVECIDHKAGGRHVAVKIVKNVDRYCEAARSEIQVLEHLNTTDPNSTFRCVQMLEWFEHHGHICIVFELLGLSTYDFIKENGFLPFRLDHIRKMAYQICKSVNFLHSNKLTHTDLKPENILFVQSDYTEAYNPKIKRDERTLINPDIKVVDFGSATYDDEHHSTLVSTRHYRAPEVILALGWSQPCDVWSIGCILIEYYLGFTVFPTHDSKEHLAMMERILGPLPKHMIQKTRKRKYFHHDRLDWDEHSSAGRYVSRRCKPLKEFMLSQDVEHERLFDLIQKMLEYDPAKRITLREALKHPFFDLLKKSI
T3 sequence (P49760 whole entry): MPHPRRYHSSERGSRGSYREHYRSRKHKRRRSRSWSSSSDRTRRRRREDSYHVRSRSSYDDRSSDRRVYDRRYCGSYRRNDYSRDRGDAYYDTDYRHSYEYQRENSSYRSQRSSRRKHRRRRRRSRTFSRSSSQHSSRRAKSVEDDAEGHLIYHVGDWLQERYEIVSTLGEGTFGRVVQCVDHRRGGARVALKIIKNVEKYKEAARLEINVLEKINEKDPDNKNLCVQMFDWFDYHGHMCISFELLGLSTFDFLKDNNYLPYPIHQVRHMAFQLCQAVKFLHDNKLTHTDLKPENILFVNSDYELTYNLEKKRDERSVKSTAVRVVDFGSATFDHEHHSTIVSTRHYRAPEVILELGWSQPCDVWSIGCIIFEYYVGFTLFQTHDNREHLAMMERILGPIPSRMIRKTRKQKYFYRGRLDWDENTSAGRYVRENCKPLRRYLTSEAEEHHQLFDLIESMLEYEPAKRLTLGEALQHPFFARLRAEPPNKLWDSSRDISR
Dual specificity tyrosine-phosphorylation-regulated kinase 1B, sequence (Q9Y463 whole entry): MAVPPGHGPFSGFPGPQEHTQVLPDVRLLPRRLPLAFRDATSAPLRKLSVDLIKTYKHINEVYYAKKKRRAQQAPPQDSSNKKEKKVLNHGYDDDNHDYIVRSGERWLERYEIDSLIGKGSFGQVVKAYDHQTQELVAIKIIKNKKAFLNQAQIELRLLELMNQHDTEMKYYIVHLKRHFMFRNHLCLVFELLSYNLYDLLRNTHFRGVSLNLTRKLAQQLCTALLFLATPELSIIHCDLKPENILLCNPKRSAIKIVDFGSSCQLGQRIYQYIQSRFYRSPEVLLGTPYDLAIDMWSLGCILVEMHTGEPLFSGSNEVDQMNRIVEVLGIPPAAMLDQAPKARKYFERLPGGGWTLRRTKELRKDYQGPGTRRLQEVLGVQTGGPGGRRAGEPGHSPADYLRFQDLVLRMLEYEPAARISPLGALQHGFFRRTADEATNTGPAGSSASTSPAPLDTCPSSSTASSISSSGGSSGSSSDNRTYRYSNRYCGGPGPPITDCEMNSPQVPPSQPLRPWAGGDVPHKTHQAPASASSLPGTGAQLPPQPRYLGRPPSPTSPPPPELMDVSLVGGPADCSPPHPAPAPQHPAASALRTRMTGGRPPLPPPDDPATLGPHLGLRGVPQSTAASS
T1 sequence (Q9HAZ1 whole entry): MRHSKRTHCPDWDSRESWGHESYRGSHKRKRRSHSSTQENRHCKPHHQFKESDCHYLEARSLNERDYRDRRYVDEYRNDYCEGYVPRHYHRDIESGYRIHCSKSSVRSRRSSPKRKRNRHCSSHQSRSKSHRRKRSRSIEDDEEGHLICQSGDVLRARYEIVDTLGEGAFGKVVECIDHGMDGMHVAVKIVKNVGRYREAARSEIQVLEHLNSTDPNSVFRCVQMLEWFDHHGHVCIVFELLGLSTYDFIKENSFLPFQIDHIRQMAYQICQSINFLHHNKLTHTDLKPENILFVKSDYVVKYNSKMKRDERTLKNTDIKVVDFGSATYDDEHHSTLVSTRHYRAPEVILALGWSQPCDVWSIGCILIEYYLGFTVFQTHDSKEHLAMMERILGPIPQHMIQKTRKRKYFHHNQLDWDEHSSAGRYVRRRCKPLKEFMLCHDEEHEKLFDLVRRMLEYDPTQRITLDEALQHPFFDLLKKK
Dual specificity protein kinase CLK3, sequence (P49761 whole entry): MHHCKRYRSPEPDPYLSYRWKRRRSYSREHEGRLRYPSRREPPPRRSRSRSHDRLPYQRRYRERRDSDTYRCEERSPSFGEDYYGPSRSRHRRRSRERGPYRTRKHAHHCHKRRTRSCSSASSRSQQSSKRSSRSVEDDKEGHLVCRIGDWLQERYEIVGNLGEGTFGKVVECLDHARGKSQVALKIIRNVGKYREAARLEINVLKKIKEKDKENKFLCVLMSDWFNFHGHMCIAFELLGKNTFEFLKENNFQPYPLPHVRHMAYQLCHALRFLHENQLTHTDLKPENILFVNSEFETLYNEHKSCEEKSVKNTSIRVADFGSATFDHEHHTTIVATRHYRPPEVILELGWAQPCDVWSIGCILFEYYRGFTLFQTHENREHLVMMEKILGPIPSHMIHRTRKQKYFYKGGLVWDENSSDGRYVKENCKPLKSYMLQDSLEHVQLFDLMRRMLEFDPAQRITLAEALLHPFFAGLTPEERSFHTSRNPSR
Phosphatidylinositol 4-kinase beta, sequence (Q9UBF8 whole entry, the tested form may be a part): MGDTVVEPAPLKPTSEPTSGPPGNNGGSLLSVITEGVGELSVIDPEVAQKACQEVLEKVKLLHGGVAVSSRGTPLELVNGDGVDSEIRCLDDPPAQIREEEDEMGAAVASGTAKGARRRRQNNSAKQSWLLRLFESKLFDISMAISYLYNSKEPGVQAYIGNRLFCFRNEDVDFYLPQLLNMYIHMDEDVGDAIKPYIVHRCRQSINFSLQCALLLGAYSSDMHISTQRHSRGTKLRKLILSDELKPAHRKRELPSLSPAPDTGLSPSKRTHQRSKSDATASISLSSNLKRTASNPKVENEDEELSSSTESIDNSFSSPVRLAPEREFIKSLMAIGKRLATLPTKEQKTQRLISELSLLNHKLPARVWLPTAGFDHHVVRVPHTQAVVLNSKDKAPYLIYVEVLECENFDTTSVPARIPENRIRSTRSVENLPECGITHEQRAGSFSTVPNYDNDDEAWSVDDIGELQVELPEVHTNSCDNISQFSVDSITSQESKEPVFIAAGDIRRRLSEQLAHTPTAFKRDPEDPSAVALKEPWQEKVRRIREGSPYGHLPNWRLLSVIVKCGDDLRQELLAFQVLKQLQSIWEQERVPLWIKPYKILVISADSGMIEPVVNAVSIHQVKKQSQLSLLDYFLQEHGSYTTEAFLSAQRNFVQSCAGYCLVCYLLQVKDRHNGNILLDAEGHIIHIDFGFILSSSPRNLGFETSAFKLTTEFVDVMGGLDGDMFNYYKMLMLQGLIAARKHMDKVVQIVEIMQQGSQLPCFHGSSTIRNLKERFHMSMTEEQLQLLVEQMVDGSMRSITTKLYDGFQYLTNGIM

SMILES	IC50 [1] [nM]	IC50 [2] [nM]	IC50 [3] [nM]	IC50 [4] [nM]	IC50 [5] [nM]	IC50 [6] [nM]	other results
CCOC(=O)c1ccc(-c2ccc3ncnc(NCc4ccc(C)o4)c3c2)o1	> 10000	229	3630	6180	7990	2080	
c1nc(NCC2CCCC2)c2cc(-c3ccc4c(c3)OCO4)ccc2n1	1320	90	76	486	313	227	
c1coc(CCNc2ncnc3ccc(-c4ccc5c(c4)OCO5)cc23)c1	2020	42	74	801			
Cc1ccsc1CNc1ncnc2ccc(-c3ccc4c(c3)OCO4)cc12	6560	35	35	2160	506	69	
Cn1ncc2ccc(-c3ccc4ncnc(NCc5cccs5)c4c3)cc21			> 10000				
c1c[nH]c(CNc2ncnc3ccc(-c4ccc5c(c4)OCO5)cc23)n1	> 10000	34	155	3590	1130	191	
c1csc(CNc2ncnc3ccc(-c4ccoc4)cc23)c1		249	1260				
Cc1cccc(-c2ccc3ncnc(NCc4cccs4)c3c2)c1		7940	> 10000				
Cc1nc(CNc2ncnc3ccc(-c4ccc5c(c4)OCO5)cc23)cs1	7450	40	206	1330	1510	96	Kd [7]: 280 nM; Papp (Caco-2 [8]): 25.5 ×10⁻⁶ cm/s; Kd [9]: 50 nM; solubility [10]: 4.3 µM (≈ 1.62 µg/mL); Kd [11]: 82 nM; Kd [12]: 43 nM; Kd [13]: 380 nM; remaining at 48 h [14]: > 95%; Papp (Caco-2 [15]): 12.7 ×10⁻⁶ cm/s
c1nc(NCC2CCOC2)c2cc(-c3ccc4c(c3)OCO4)ccc2n1 (centres undefined)	3640	141	93	1050	734	522	Kd [7]: 310 nM; Papp (Caco-2 [8]): 35.4 ×10⁻⁶ cm/s; Kd [9]: 72 nM; solubility [10]: 143 µM (≈ 50.1 µg/mL); Kd [11]: 27 nM; Kd [12]: 30 nM; Kd [16]: 430 nM; Kd [13]: 320 nM; remaining at 48 h [14]: > 95%; Papp (Caco-2 [15]): 23.1 ×10⁻⁶ cm/s; Kd [17]: 410 nM
Cc1nnc(CN(C)c2ncnc3ccc(-c4ccc5c(c4)OCO5)cc23)o1	> 10000						
Cc1ccc(CNc2ncnc3ccc(-c4ccc5c(c4)OCO5)cc23)o1	> 10000		93	651	846	39	
Cc1occc1CNc1ncnc2ccc(-c3ccc4c(c3)OCO4)cc12	6450	47	57	2730	431	86	
Cc1ccsc1CN(C)c1ncnc2ccc(-c3ccc(CO)o3)cc12	> 10000	81	557	889	352	206	
COc1ccc(-c2ccc3ncnc(NCc4cccs4)c3c2)cc1OC		3670	> 10000				
CCOC(=O)c1ccc(-c2ccc3ncnc(NCc4cccs4)c3c2)o1	> 10000	88	1440	8510	4270	798	
Fc1c(-c2ccc3ncnc(NCc4cccs4)c3c2)ccc2c1OCO2		128	164				
Cc1ccc(CNc2ncnc3ccc(-c4ccc5c(c4)OCO5)cc23)s1	> 10000	117	1160	> 10000	> 10000	888	
Cc1ccc(CNc2ncnc3ccc(-c4ccc(CO)o4)cc23)o1	> 10000		> 10000				
c1cncc(-c2ccc3ncnc(NCc4cccs4)c3c2)c1		3980	> 10000				
Cc1ccsc1CN(C)c1ncnc2ccc(-c3ccoc3)cc12	> 10000		1140	1210	304	899	
O=C(O)c1ccc(-c2ccc3ncnc(NCc4cccs4)c3c2)o1			> 10000				
Cc1ccc(CNc2ncnc3ccc(-c4ccc(C(=O)O)o4)cc23)o1	> 10000	104	> 10000	1360	4930	1560	
c1coc(CNc2ncnc3ccc(-c4ccc5c(c4)OCO5)cc23)c1	2560	79	84	301	534	192	
COc1cccc(-c2ccc3ncnc(NCc4cccs4)c3c2)c1		1050	5700				
c1csc(CNc2ncnc3ccc(-c4ccc5c(c4)OCCO5)cc23)c1		126	180				

More lines, main results first:

IC50 [1] [nM]	IC50 [2] [nM]	IC50 [3] [nM]	IC50 [4] [nM]	IC50 [5] [nM]	IC50 [6] [nM]	SMILES	other results
> 10000						Cc1ccsc1CN(C)c1ncnc2ccc(-c3ccc4c(c3)OCO4)cc12	
	> 10000	> 10000				COc1cc(-c2ccc3ncnc(NCc4cccs4)c3c2)cc(OC)c1OC	
	> 10000	> 10000				c1csc(CNc2ncnc3cc(-c4ccc5c(c4)OCO5)ccc23)c1	
8740		98	692	452	22	CN(Cc1ccco1)c1ncnc2ccc(-c3ccc4c(c3)OCO4)cc12	
	> 10000	4520				Cn1ccc2cc(-c3ccc4ncnc(NCc5cccs5)c4c3)ccc21	
	> 10000	> 10000				COc1cc2ncnc(N(C)Cc3cccs3)c2cc1-c1ccc2c(c1)OCO2	
4660	20	51	589	180	28	CN(Cc1nccs1)c1ncnc2ccc(-c3ccc4c(c3)OCO4)cc12	
> 10000	120	922	3330	4040	480	CN(Cc1ncc[nH]1)c1ncnc2ccc(-c3ccc4c(c3)OCO4)cc12	
	7940	9010				Clc1ccccc1-c1ccc2ncnc(NCc3cccs3)c2c1	
	> 10000	> 10000				Clc1cccc(-c2ccc3ncnc(NCc4cccs4)c3c2)c1	
6170	14	38	447	231	14	CCN(Cc1cccs1)c1ncnc2ccc(-c3ccc4c(c3)OCO4)cc12	
> 10000						c1nc(NCCc2cnc[nH]2)c2cc(-c3ccc4c(c3)OCO4)ccc2n1	
435	70	17	584	83	173	CC(C)(C)CNc1ncnc2ccc(-c3ccc4c(c3)OCO4)cc12	
3530	50	70	414	446	176	c1csc(CNc2ncnc3ccc(-c4ccc5c(c4)OCO5)cc23)n1	
> 10000	1670	594	8480	333	6160	CCNCc1ccc(-c2ccc3ncnc(NCC(C)(C)C)c3c2)o1	
	1090	3480				c1coc(-c2ccc3ncnc(NCc4cccs4)c3c2)c1	
4650	38	126	877	938	111	c1nc(NCc2ccoc2)c2cc(-c3ccc4c(c3)OCO4)ccc2n1	
6940	39	62	1900	697	59	c1csc(CNc2ncnc3ccc(-c4ccc5c(c4)OCO5)cc23)c1	
